Blank lines part the entries; values can stand above or below the compound they belong to.
Tests used:
[1] = target: T1, human dopamine D4 receptor subtype (Homo sapiens, UniProt P21917); assay: [3H]-Spiperone binding (displacement), human dopamine D4 receptor subtype; conditions: selectivity ratio from Ki values for D4 and D2 subtypes
T1 sequence (P21917 1-419): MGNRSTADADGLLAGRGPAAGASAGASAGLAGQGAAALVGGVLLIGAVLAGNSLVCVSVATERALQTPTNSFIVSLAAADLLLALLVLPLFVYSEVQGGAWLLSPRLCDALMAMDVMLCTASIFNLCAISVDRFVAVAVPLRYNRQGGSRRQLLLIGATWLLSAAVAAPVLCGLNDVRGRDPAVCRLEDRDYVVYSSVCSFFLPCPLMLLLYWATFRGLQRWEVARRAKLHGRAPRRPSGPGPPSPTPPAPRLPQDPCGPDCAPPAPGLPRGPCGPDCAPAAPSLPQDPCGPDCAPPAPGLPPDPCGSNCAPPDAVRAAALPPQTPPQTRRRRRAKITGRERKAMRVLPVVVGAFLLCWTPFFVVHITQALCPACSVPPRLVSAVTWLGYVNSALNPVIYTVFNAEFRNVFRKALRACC

[2] = target: T2, human dopamine D2 receptor subtype (Homo sapiens, UniProt P14416); assay: [3H]-Spiperone binding (displacement), human dopamine D2 receptor subtype; conditions: human dopamine D2 receptor subtype expressed in clonal cell lines
T2 construct: expressed in transfected cells

[3] = system: spontaneous motor activity; assay: Sedation: effects on spontaneous motor activity of rats in novel cages equipped with photocells (number of cage crossings); format: in vivo; conditions: rat
Source text: Representative compounds according to the invention have been tested for their effects on spontaneous motor activity occasioned by placing rats in novel cages equipped with photocells in order to determine the number of cage crossings. This is an art-recognised model of the sedation potential of a given test compound.

[4] = system: apomorphine-induced stereotypy; assay: Extrapyramidal disorders: effect on apomorphine-induced stereotypy in the rat; format: in vivo
Source text: Representative compounds according to the invention have been tested for their effect on apomorphine-induced stereotypy in the rat. This is an art-recognised model of the potential to induce extrapyramidal side-effects.

T2 sequence (P14416 whole entry): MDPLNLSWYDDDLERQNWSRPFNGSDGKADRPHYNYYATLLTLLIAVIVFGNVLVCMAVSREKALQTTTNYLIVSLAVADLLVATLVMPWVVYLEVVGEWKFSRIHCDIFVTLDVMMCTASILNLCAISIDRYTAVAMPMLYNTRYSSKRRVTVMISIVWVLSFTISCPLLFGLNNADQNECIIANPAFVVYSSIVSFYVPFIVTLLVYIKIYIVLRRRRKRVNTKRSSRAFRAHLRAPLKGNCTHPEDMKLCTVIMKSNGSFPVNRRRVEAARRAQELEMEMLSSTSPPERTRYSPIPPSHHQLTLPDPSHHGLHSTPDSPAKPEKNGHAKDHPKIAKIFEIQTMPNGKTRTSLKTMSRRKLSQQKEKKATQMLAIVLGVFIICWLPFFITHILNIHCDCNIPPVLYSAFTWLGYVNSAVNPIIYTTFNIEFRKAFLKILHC

D4:D2 ratio [1]: greater than 1150 | Ki [2]: > 1.5 µM
SMILES: COc1ccc(N2CCN(Cc3c[nH]c4ncccc34)CC2)cc1 [Example 2, 3-(4-[4-Methoxyphenyl]piperazin-1-yl)methyl-1H-pyrrolo [2,3-b]pyridine]

SMILES: O=C(CCCN1CCC(O)(c2ccc(Cl)cc2)CC1)c1ccc(F)cc1 [haloperidol, reference compound]
sedation (spontaneous motor activity) ([3]; dose of 1 mg/kg): marked sedation | potential to elicit extrapyramidal side-effects (apomorphine-induced stereotypy) ([4]; doses of 0.5 and 1.0 mg/kg): significant potential to elicit extrapyramidal side-effects

SMILES: Clc1ccc(N2CCN(Cc3c[nH]c4ncccc34)CC2)cc1 [Example 5, 3-(4-[4-Chlorophenyl]piperazin-1-yl)methyl-1H-pyrrolo [2,3-b]pyridine]
sedation (spontaneous motor activity) ([3]; doses of up to 10-30 mg/kg): no evidence for sedation | potential to induce extrapyramidal side-effects (apomorphine-induced stereotypy) ([4]; doses up to 1.0 mg/kg): no potential to induce the extrapyramidal side-effects

Source: US5622950A, “Pyrrolo-pyridine derivatives” (Merck, Sharp & Dohme Ltd., priority 1993, dated 1997)
